From patent US20260318831A1 (University of Cincinnati, priority 2023, published 2026)

Tested on: HeLa cells
Test: CCK-8 cell viability and cytotoxicity assay
Format: cell-based
Conditions: within 24 h incubation, 0~10 μM
Protocol: In some aspects, the probes of the present disclosure can be administered to living cells, either in vitro or in vivo. To take advantage of the absorption and emission spectra of PyQPMe, this probe was administered in high-resolution microscopy for living cells. The toxicity of PyQPMe was examined at first before characterizing its imaging properties. Cell Counting Kit-8 (CCK-8) was used to investigate the viability of HeLa cells stained with PyQPMe. […] Next, PyQPMe was characterized by Leica Stellaris Confocal Microscope in the LIGHTNING module for high-resolution imaging. […] The signal tended to be endolysosomes because endolysosomes have a low pH range from 4.7 to 6.3. […] Since low temperatures can inhibit endocytosis, experiments at a lower temperature were performed.
Cell viability and cytotoxicity assay. […] The viability was determined by adding 10 μL reagent from a cell counting kit-8 (CCK-8) (Dojindo Molecular Technologies, Inc.) and incubating at 37° C. for 1 h. CCK-8 solution was added to each well and the OD value for each well was read at wavelength 490 nm on a microplate reader (BioTek Instruments, Inc., USA). The interference of absorbance from PyQPMe at 490 nm was minimal compared to the CCK-8 reagent during measurement.

Q: For `CN1CCN(c2ccc(/C=C/c3ccc4cc(-c5ccncc5)ccc4[n+]3C)cc2)CC1` [PyQPMe, (E)-1-methyl-2-(4-(4-methylpiperazin-1-yl)styryl)-6-(pyridin-4-yl)quinolin-1-ium], which “effect on viability of HeLa cells” value is on record?
A: Its value is “no effects on the viability of HeLa cells”.
